# Tested on: patients with ischemic strokes
# Assay: Phase 2 clinical study of spray in patients with ischemic strokes
# Assay type: in vivo, human
# Details: for LCCA (far-wall): Maximal IMT of left common carotid artery / LCCA (near-wall): Maximal IMT of left common carotid artery / LICA (far-wall): Maximal IMT of left internal carotid artery / LICA (near-wall): Maximal IMT of left internal carotid artery / RCCA (far-wall): Maximal IMT of right common carotid artery / RCCA (near-wall): Maximal IMT of right common carotid artery / RICA (far-wall): Maximal IMT of right internal carotid artery / RICA (near-wall): Maximal IMT of right internal carotid artery: ultrasonography
# Experimental: Each patient enrolled in Group A was administered the investigational drug in a double-blind manner for 16 weeks starting between 3 and 60 days after the onset of stroke symptoms (Day 1 of the study). The patients and/or their caregivers were instructed how to apply the investigational drug accurately so that patients or their caregivers would administer 20 sprays/dose of either the investigational drug or placebo twice daily (approximately every 12 hours) for a total daily dose of 280 mg of investigational drug. The 20 sprays of investigational drug were administered as follows: 4 sprays around the neck, 2 sprays to the left shoulder, 2 sprays to the right shoulder, 6 sprays to the chest, 3 sprays to the left leg, and 3 sprays to the right leg. Each spray was sprayed on a different area of the skin to reach maximum absorption. The patient would wait for at least 5 minutes to dress after the last spray so that the skin became completely dry.
# Patients were asked to return to the study site at Weeks 4, 8, 12, and 16 for efficacy and safety assessments. After the Week 16 assessments had been performed, patients would start the open-label period of the study the next day and receive active treatment in an open-label manner through the end of the study (EOS) at Week 32. That is, patients who were receiving active treatment would continue to receive active treatment, and patients who were receiving placebo would switch to active treatment for the remaining 16 weeks of the study. Patients would receive only 1 dose of investigational drug on the Week 16 visit day. Patients would return to the study site at Week 24 and Week 32 (EOS) for efficacy and safety assessments. An Early Termination visit would occur if the patient was discontinued from the study prematurely. Patients would have a follow-up visit approximately 14 days after the Early Termination visit or the Week 32 (EOS) visit.
# The spray bottle deposits […] of spray solution and 7 mg 2-(diethylamino)ethyl acetoxybenzoate free base per spray on the skin. Subjects were to apply each spray to a different skin area around the neck, chest, legs and arms based on the randomized dose level assigned.
# The treatment was administered twice daily (approximately every 12 hours) starting on Day 1 of the study through the Week 16 visit. Each spray was sprayed on a different area of the skin to reach maximum absorption.
# Group A administered the 20 sprays of investigational drug as follows: 4 sprays around the neck, 2 sprays to the left shoulder, 2 sprays to the right shoulder, 6 sprays to the chest, 3 sprays to the left leg, and 3 sprays to the right leg twice daily for a total of 40 sprays (280 mg)/day. Each spray was sprayed on a different area of the skin to reach maximum absorption.
# (§1) Group B administered the investigational drug as follows: 2 sprays to the front of the neck, 1 spray to the left side of the neck, 1 spray to the right side of the neck, 6 sprays to the chest close to the neck twice daily for a total of 20 sprays (140 mg)/day. Each spray was sprayed on a different area of the skin to reach maximum absorption.
# as §1, with “C” for “B”, “1 spray” for “2 sprays”, “2” for “6”, “chest” for “chest close to the neck”, “10” for “20”, “(70 mg/day).” for “(140 mg)/day.”
# The primary efficacy endpoint is the mRS score at Week 16 dichotomized as ‘success’ (0 to 2) or failure (>2) for all randomized patients at Week 16.
# The mRS score was assessed at screening; Day 1 (baseline); Weeks 4, 8, 12, 16, 24, and 32; Early Termination Visit (if applicable) and Follow-Up Visit.
# The mRS score measures the patient's functional level of activity and is dichotomized as a favorable outcome (score=0-2) versus unfavorable (score […]). […]
# [1] = 5 Sprays (35 mg/dose bid), Baseline
# [2] = 5 Sprays (35 mg/dose bid), Week 4
# [3] = 5 Sprays (35 mg/dose bid), Week 8
# [4] = 5 Sprays (35 mg/dose bid), Week 16
# [5] = 5 Sprays (35 mg/dose bid), Week 24
# [6] = 5 Sprays (35 mg/dose bid), Week 32
# [7] = 5 Sprays (35 mg/dose bid), baseline
# [8] = 10 Sprays (70 mg/dose bid), Baseline
# [9] = 10 Sprays (70 mg/dose bid), Week 4
# [10] = 10 Sprays (70 mg/dose bid), Week 8
# [11] = 10 Sprays (70 mg/dose bid), Week 16
compound,measurement,setting,value
CCN(CC)CCOC(=O)c1ccccc1OC(C)=O.Cl [Compound-1],safety and tolerability,"35 mg, 70 mg, and 140 mg BID, topical spray",safe and were generally well tolerated
same,LCCA (far-wall): Maximal IMT of left common carotid artery,[1],6.2 ± 1.6 mm
same,LCCA (near-wall): Maximal IMT of left common carotid artery,[1],7.3 ± 2.0 mm
same,LICA (far-wall): Maximal IMT of left internal carotid artery,[1],5.3 ± 1.3 mm
same,LICA (near-wall): Maximal IMT of left internal carotid artery,[1],6.3 ± 2.1 mm
same,RCCA (far-wall): Maximal IMT of right common carotid artery,[1],7.1 ± 2.2 mm
same,RCCA (near-wall): Maximal IMT of right common carotid artery,[1],6.9 ± 2.1 mm
same,RICA (far-wall): Maximal IMT of right internal carotid artery,[1],4.1 ± 1.4 mm
same,RICA (near-wall): Maximal IMT of right internal carotid artery,[1],4.7 ± 1.5 mm
same,Modified Rankin Scale Score (mRS),[2],3.1 ± 0.5
same,National Institute of Health Stroke Scale,[2],5.5 ± 1.7
same,Modified Rankin Scale Score (mRS),[3],2.9 ± 0.3
same,National Institute of Health Stroke Scale,[3],5.3 ± 1.5
same,Modified Rankin Scale Score (mRS),[4],2.7 ± 0.5
same,National Institute of Health Stroke Scale,[4],4.1 ± 1.0
same,LCCA (far-wall): Maximal IMT of left common carotid artery,[4],2.7 ± 1.4 mm
same,LCCA (near-wall): Maximal IMT of left common carotid artery,[4],2.3 ± 1.3 mm
same,LICA (far-wall): Maximal IMT of left internal carotid artery,[4],1.5 ± 1.1 mm
same,LICA (near-wall): Maximal IMT of left internal carotid artery,[4],1.6 ± 1.3 mm
same,RCCA (far-wall): Maximal IMT of right common carotid artery,[4],2.5 ± 1.1 mm
same,RCCA (near-wall): Maximal IMT of right common carotid artery,[4],2.1 ± 0.9 mm
same,RICA (far-wall): Maximal IMT of right internal carotid artery,[4],1.6 ± 0.9 mm
same,RICA (near-wall): Maximal IMT of right internal carotid artery,[4],1.5 ± 1.2 mm
same,Modified Rankin Scale Score (mRS),[5],2.5 ± 0.5
same,National Institute of Health Stroke Scale,[5],3.4 ± 0.8
same,Modified Rankin Scale Score (mRS),[6],2.4 ± 0.5
same,National Institute of Health Stroke Scale,[6],2.9 ± 0.6
same,LCCA (far-wall): Maximal IMT of left common carotid artery,[6],2.5 ± 0.7 mm
same,LCCA (near-wall): Maximal IMT of left common carotid artery,[6],2.1 ± 0.7 mm
same,LICA (far-wall): Maximal IMT of left internal carotid artery,[6],1.3 ± 0.7 mm
same,LICA (near-wall): Maximal IMT of left internal carotid artery,[6],1.2 ± 1.0 mm
same,RCCA (far-wall): Maximal IMT of right common carotid artery,[6],2.6 ± 0.9 mm
same,RCCA (near-wall): Maximal IMT of right common carotid artery,[6],2.3 ± 0.8 mm
same,RICA (far-wall): Maximal IMT of right internal carotid artery,[6],1.1 ± 0.7 mm
same,RICA (near-wall): Maximal IMT of right internal carotid artery,[6],1.2 ± 0.6 mm
same,Modified Rankin Scale Score (mRS),[7],3.5 ± 0.5
same,National Institute of Health Stroke Scale,[7],6.0 ± 2.2
same,LCCA (far-wall): Maximal IMT of left common carotid artery,[8],7.1 ± 1.7 mm
same,LCCA (near-wall): Maximal IMT of left common carotid artery,[8],7.0 ± 1.5 mm
same,LICA (far-wall): Maximal IMT of left internal carotid artery,[8],5.8 ± 1.5 mm
same,LICA (near-wall): Maximal IMT of left internal carotid artery,[8],6.1 ± 1.3 mm
same,RCCA (far-wall): Maximal IMT of right common carotid artery,[8],7.9 ± 2.1 mm
same,RCCA (near-wall): Maximal IMT of right common carotid artery,[8],7.2 ± 1.7 mm
same,RICA (far-wall): Maximal IMT of right internal carotid artery,[8],4.3 ± 1.5 mm
same,RICA (near-wall): Maximal IMT of right internal carotid artery,[8],5.1 ± 1.2 mm
same,Modified Rankin Scale Score (mRS),[9],2.5 ± 0.5
same,National Institute of Health Stroke Scale,[9],4.9 ± 1.5
same,Modified Rankin Scale Score (mRS),[10],2.0 ± 0.5
same,National Institute of Health Stroke Scale,[10],3.7 ± 1.1
same,Modified Rankin Scale Score (mRS),[11],1.6 ± 0.5
same,National Institute of Health Stroke Scale,[11],2.3 ± 0.8
same,LCCA (far-wall): Maximal IMT of left common carotid artery,[11],1.8 ± 0.7 mm
same,LCCA (near-wall): Maximal IMT of left common carotid artery,[11],1.3 ± 0.7 mm
same,LICA (far-wall): Maximal IMT of left internal carotid artery,[11],0.7 ± 0.3 mm
same,LICA (near-wall): Maximal IMT of left internal carotid artery,[11],0.9 ± 0.5 mm
same,RCCA (far-wall): Maximal IMT of right common carotid artery,[11],1.5 ± 0.6 mm
same,RCCA (near-wall): Maximal IMT of right common carotid artery,[11],1.6 ± 0.8 mm
same,RICA (far-wall): Maximal IMT of right internal carotid artery,[11],0.8 ± 0.3 mm
